Results: PubChem BioAssay (NCI)
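Protocol summary: plate cells (96-well), add compound at 5 concentrations, incubate 48 h, interpolate endpoints linearly. Here, GI50 denotes the concentration required for 50% inhibition of growth. Definition used: TGI = concentration required for complete inhibition of growth.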

Tests used:
Assay in all cases: NCI tumour cell line growth inhibition, 48 h
OVCAR-4 ovarian = tested on: OVCAR-4 ovarian
UACC-257 melanoma = tested on: UACC-257 melanoma
HOP-62 NSCLC = tested on: HOP-62 NSCLC
NCI-H522 lung = tested on: NCI-H522 lung
SF-539 CNS = tested on: SF-539 CNS
SNB-75 CNS = tested on: SNB-75 CNS
HT29 colon = tested on: HT29 colon
TK-10 renal = tested on: TK-10 renal
CCRF-CEM leukemia = tested on: CCRF-CEM leukemia
NCI-H460 lung = tested on: NCI-H460 lung
UO-31 renal = tested on: UO-31 renal
RXF 393 renal = tested on: RXF 393 renal
SF-268 CNS = tested on: SF-268 CNS
EKVX NSCLC = tested on: EKVX NSCLC
CAKI-1 renal = tested on: CAKI-1 renal
SR leukemia = tested on: SR leukemia
M14 melanoma = tested on: M14 melanoma
NCI/ADR-RES ovarian = tested on: NCI/ADR-RES ovarian
MCF7 breast = tested on: MCF7 breast
OVCAR-8 ovarian = tested on: OVCAR-8 ovarian
ACHN renal = tested on: ACHN renal
NCI-H226 lung = tested on: NCI-H226 lung
SK-MEL-5 melanoma = tested on: SK-MEL-5 melanoma
KM12 colon = tested on: KM12 colon
A549 NSCLC = tested on: A549 NSCLC
COLO 205 colon = tested on: COLO 205 colon
SK-OV-3 ovarian = tested on: SK-OV-3 ovarian
DU-145 prostate = tested on: DU-145 prostate
SK-MEL-28 melanoma = tested on: SK-MEL-28 melanoma
HCT-116 colon = tested on: HCT-116 colon
MALME-3M melanoma = tested on: MALME-3M melanoma
HOP-92 NSCLC = tested on: HOP-92 NSCLC
PC-3 prostate = tested on: PC-3 prostate
SF-295 CNS = tested on: SF-295 CNS
SK-MEL-2 melanoma = tested on: SK-MEL-2 melanoma
LOX IMVI melanoma = tested on: LOX IMVI melanoma
HL-60(TB) leukemia = tested on: HL-60(TB) leukemia
OVCAR-3 ovarian = tested on: OVCAR-3 ovarian
HS 578T breast = tested on: HS 578T breast
HCT-15 colon = tested on: HCT-15 colon
SN12C renal = tested on: SN12C renal
NCI-H23 lung = tested on: NCI-H23 lung
BT-549 breast = tested on: BT-549 breast
MOLT-4 leukemia = tested on: MOLT-4 leukemia
786-0 renal = tested on: 786-0 renal
UACC-62 melanoma = tested on: UACC-62 melanoma
OVCAR-5 ovarian = tested on: OVCAR-5 ovarian
K-562 leukemia = tested on: K-562 leukemia
SW-620 colon = tested on: SW-620 colon
SNB-19 CNS = tested on: SNB-19 CNS
HCC-2998 colon = tested on: HCC-2998 colon
U251 CNS = tested on: U251 CNS
A498 renal = tested on: A498 renal
MDA-MB-435 = tested on: MDA-MB-435
T-47D breast = tested on: T-47D breast
RPMI-8226 leukemia = tested on: RPMI-8226 leukemia

## COc1ncc(-c2ccc3nccc(C#CCCCCC(=O)O)c3c2)cc1NS(=O)(=O)c1ccc(F)cc1F
OVCAR-4 ovarian
  GI50: 3.62 µM
  TGI: 83.8 µM
UACC-257 melanoma
  GI50: 0.355 µM
  TGI: 5.92 µM
HOP-62 NSCLC
  GI50: 1.16 µM
  TGI: > 100 µM
NCI-H522 lung
  GI50: 1.25 µM
  TGI: > 100 µM
SF-539 CNS
  GI50: 0.492 µM
  TGI: 5.87 µM
SNB-75 CNS
  GI50: 0.0199 µM
  TGI: 0.98 µM
HT29 colon
  GI50: 0.0826 µM
  TGI: > 100 µM
TK-10 renal
  GI50: 0.0846 µM
  TGI: 9.67 µM
CCRF-CEM leukemia
  GI50: 1.21 µM
  TGI: > 100 µM
NCI-H460 lung
  GI50: 0.324 µM
  TGI: > 100 µM
UO-31 renal
  GI50: 0.207 µM
  TGI: 14.1 µM
RXF 393 renal
  GI50: 1.12 µM
  TGI: 6.02 µM
SF-268 CNS
  GI50: 1.17 µM
  TGI: > 100 µM
EKVX NSCLC
  GI50: 1.11 µM
  TGI: 45.1 µM
CAKI-1 renal
  GI50: 0.819 µM
  TGI: > 100 µM
SR leukemia
  GI50: 1.67 µM
  TGI: 44.1 µM
M14 melanoma
  GI50: 1.61 µM
  TGI: > 100 µM
NCI/ADR-RES ovarian
  GI50: 3.97 µM
  TGI: > 100 µM
MCF7 breast
  GI50: 0.015 µM
  TGI: > 100 µM
OVCAR-8 ovarian
  GI50: 2.36 µM
  TGI: > 100 µM
ACHN renal
  GI50: 2.73 µM
  TGI: > 100 µM
NCI-H226 lung
  GI50: 4.73 µM
  TGI: > 100 µM
SK-MEL-5 melanoma
  GI50: 2.84 µM
  TGI: 15 µM
KM12 colon
  GI50: 2.88 µM
  TGI: > 100 µM
A549 NSCLC
  GI50: 0.557 µM
  TGI: > 100 µM
COLO 205 colon
  GI50: 0.108 µM
  TGI: 30.2 µM
SK-OV-3 ovarian
  GI50: 0.0432 µM
  TGI: 0.657 µM
DU-145 prostate
  GI50: 2.09 µM
  TGI: > 100 µM
SK-MEL-28 melanoma
  GI50: 0.539 µM
  TGI: > 100 µM
HCT-116 colon
  GI50: 6.85 µM
  TGI: > 100 µM
MALME-3M melanoma
  GI50: 0.0761 µM
  TGI: 0.916 µM
HOP-92 NSCLC
  GI50: 0.0158 µM
  TGI: 0.62 µM
PC-3 prostate
  GI50: 0.548 µM
  TGI: > 100 µM
SF-295 CNS
  GI50: 0.735 µM
  TGI: 6.45 µM
SK-MEL-2 melanoma
  GI50: 1.6 µM
  TGI: 15.2 µM
LOX IMVI melanoma
  GI50: 0.941 µM
  TGI: 18.9 µM
HL-60(TB) leukemia
  GI50: 0.283 µM
  TGI: 59.1 µM
OVCAR-3 ovarian
  GI50: 0.733 µM
  TGI: 23.3 µM
HS 578T breast
  GI50: 0.0657 µM
  TGI: 2.34 µM
HCT-15 colon
  GI50: 0.362 µM
  TGI: > 100 µM
SN12C renal
  GI50: 2.55 µM
  TGI: > 100 µM
NCI-H23 lung
  GI50: 2.39 µM
  TGI: > 100 µM
BT-549 breast
  GI50: 0.449 µM
  TGI: 8.92 µM
MOLT-4 leukemia
  GI50: 0.52 µM
  TGI: 33.5 µM
786-0 renal
  GI50: 1.04 µM
  TGI: 17.3 µM
UACC-62 melanoma
  GI50: 0.274 µM
  TGI: 3.02 µM
OVCAR-5 ovarian
  GI50: 0.122 µM
  TGI: > 100 µM
K-562 leukemia
  GI50: 17.2 µM
  TGI: > 100 µM
SW-620 colon
  GI50: 1.91 µM
  TGI: > 100 µM
SNB-19 CNS
  GI50: 2.05 µM
  TGI: 84.9 µM
HCC-2998 colon
  GI50: 0.626 µM
  TGI: > 100 µM
U251 CNS
  GI50: 0.562 µM
  TGI: 27.8 µM
A498 renal
  GI50: 0.0408 µM
  TGI: 0.799 µM
MDA-MB-435
  GI50: 0.845 µM
  TGI: > 100 µM
T-47D breast
  TGI: 0.0849 µM

## Nc1ccccc1C#C/C=C\C#Cc1cnccn1
OVCAR-4 ovarian
  GI50: 23.1 µM
  TGI: > 100 µM
UACC-257 melanoma
  GI50: 26 µM
  TGI: > 100 µM
HOP-62 NSCLC
  GI50: 13.6 µM
  TGI: 32.3 µM
SF-539 CNS
  GI50: 22.8 µM
  TGI: 87.6 µM
SNB-75 CNS
  GI50: 21.1 µM
  TGI: 90.7 µM
HT29 colon
  GI50: 23.4 µM
  TGI: 74.3 µM
TK-10 renal
  GI50: 32.4 µM
  TGI: 60 µM
CCRF-CEM leukemia
  TGI: 14.8 µM
NCI-H460 lung
  GI50: 29.8 µM
  TGI: > 100 µM
SF-268 CNS
  GI50: 27.5 µM
  TGI: > 100 µM
EKVX NSCLC
  GI50: 16.3 µM
  TGI: > 100 µM
CAKI-1 renal
  GI50: 46.3 µM
  TGI: > 100 µM
M14 melanoma
  GI50: 6.21 µM
  TGI: 20.4 µM
NCI/ADR-RES ovarian
  GI50: 13.7 µM
  TGI: 31.9 µM
MCF7 breast
  GI50: 21.3 µM
  TGI: > 100 µM
OVCAR-8 ovarian
  GI50: 41.8 µM
  TGI: > 100 µM
ACHN renal
  GI50: 22.2 µM
  TGI: 79.7 µM
SK-MEL-5 melanoma
  GI50: 6.34 µM
  TGI: 21.3 µM
KM12 colon
  GI50: 23.3 µM
  TGI: > 100 µM
A549 NSCLC
  GI50: 30.2 µM
  TGI: > 100 µM
COLO 205 colon
  GI50: 14.5 µM
  TGI: 28.5 µM
SK-OV-3 ovarian
  GI50: 31.1 µM
  TGI: 95.5 µM
DU-145 prostate
  GI50: 19.4 µM
  TGI: > 100 µM
SK-MEL-28 melanoma
  GI50: 27.8 µM
  TGI: > 100 µM
RPMI-8226 leukemia
  GI50: 3.17 µM
  TGI: 19.2 µM
HCT-116 colon
  GI50: 11.2 µM
  TGI: 23.2 µM
MALME-3M melanoma
  GI50: 19.9 µM
  TGI: 58.6 µM
HOP-92 NSCLC
  GI50: 1.36 µM
  TGI: 18.3 µM
PC-3 prostate
  GI50: 4.11 µM
  TGI: 23.8 µM
SF-295 CNS
  GI50: 74.6 µM
  TGI: > 100 µM
LOX IMVI melanoma
  GI50: 2.93 µM
  TGI: 17.5 µM
OVCAR-3 ovarian
  GI50: 86.5 µM
  TGI: > 100 µM
HS 578T breast
  GI50: 27 µM
  TGI: > 100 µM
HCT-15 colon
  GI50: 26.1 µM
  TGI: > 100 µM
SN12C renal
  GI50: 4.33 µM
  TGI: 20.7 µM
NCI-H23 lung
  GI50: 12.1 µM
  TGI: 27 µM
BT-549 breast
  GI50: 20.3 µM
  TGI: 70.2 µM
MOLT-4 leukemia
  GI50: 12.4 µM
  TGI: 68.5 µM
UACC-62 melanoma
  GI50: 3.95 µM
  TGI: 21 µM
OVCAR-5 ovarian
  GI50: 18.8 µM
  TGI: 45.7 µM
K-562 leukemia
  GI50: 6.66 µM
  TGI: > 100 µM
SW-620 colon
  GI50: 15.2 µM
  TGI: 46.1 µM
SNB-19 CNS
  GI50: 36.7 µM
  TGI: > 100 µM
HCC-2998 colon
  GI50: 11 µM
  TGI: 23 µM
U251 CNS
  GI50: 18.2 µM
  TGI: 41.8 µM
MDA-MB-435
  GI50: 48.4 µM
  TGI: > 100 µM
T-47D breast
  GI50: 17.7 µM
  TGI: 40.3 µM
